Data reported in patent US10570184B2, “GLP-1/glucagon receptor co-agonists for medical use” (Novo Nordisk A/S, priority 2014, dated 2020).
Starred links: 1 amine or outer side, 2 acyl side, 3 side chain; linkers in the order of their positions; H or OH if unused. Non-standard residues stand in square brackets, D forms with d. Residues, ends and D or L forms follow the SMILES beside them. Groups on a side chain read outwards from the residue. *: point of attachment. C18 diacid = O=C(O)CCCCCCCCCCCCCCCCC(=O)*; γGlu = O=C(O)[C@H](CCC(=O)[*:2])N[*:1]; Ac4c = NC1(C(=O)O)CCC1; AEEA = NCCOCCOCC(=O)O; Aib = CC(C)(N)C(=O)O

Experiments:
[1] = Assay (III) ThT fibrillation assay for physical stability; assay type: physicochemical; settings: 250 μM in 10 mM HEPES buffer, 37° C., shaking 960 rpm
Source text: The purpose of this assay is to assess the physical stability of the glucagon derivatives of the invention in aqueous solutions. Low physical stability of a peptide may lead to amyloid fibril formation, which is observed as well-ordered, thread-like macromolecular structures in the sample, which eventually may lead to gel formation. This has traditionally been measured by visual inspection of the sample. However, that kind of measurement is very subjective and depending on the observer. Therefore, the application of a small molecule indicator probe is much more advantageous. Thioflavin T (ThT) is such a probe and has a distinct fluorescence signature when binding to fibrils [Naiki et al. (1989) Anal. Biochem. 177, 244-249; LeVine (1999) Methods. Enzymol. 309, 274-284]. […] The constant t0 is the time needed to reach 50% of maximum fluorescence. The two important parameters describing fibril formation are the lag-time calculated by t0−2τ and the apparent rate constant kapp 1/τ. Samples were prepared freshly before each assay. Each sample composition is described in the legends. The pH of the sample was adjusted to the desired value using appropriate amounts of concentrated NaOH and HCl. Thioflavin T was added to the samples from a stock solution in H2O to a final concentration of 1 μM. Sample aliquots of 200 μl (250 μM of the glucagon derivative in 10 mM HEPES buffer, pH 7.5) were placed in a 96 well microtiter plate (Packard OptiPlate™-96, white polystyrene). Usually, four or eight replica of each sample (corresponding to one test condition) were placed in one column of wells. The plate was sealed with Scotch Pad (Qiagen). Incubation at given temperature, shaking and measurement of the ThT fluorescence emission were done in a Fluoroskan Ascent FL fluorescence platereader (Thermo Labsystems). The temperature was adjusted to 37° C. The plate was incubated with orbital shaking adjusted to 960 rpm with an amplitude of 1 mm. Fluorescence measurement was done using excitation through a 444 nm filter and measurement of emission through a 485 nm filter. Each run was initiated by incubating the plate at the assay temperature for 10 min. The plate was measured every 20 minutes for a desired period of time. Between each measurement, the plate was shaken and heated as described. After completion of the ThT assay the four or eight replica of each sample was pooled and centrifuged at 20000 rpm for 30 minutes at 18° C. The supernatant was filtered through a 0.22 μm filter and an aliquot was transferred to a HPLC vial. The concentration of peptide in the initial sample and in the filtered supernatant was determined by reverse phase HPLC using an appropriate standard as reference. The percentage fraction the concentration of the filtered sample constituted of the initial sample concentration was reported as the recovery. The measurement points were saved in Microsoft Excel format for further processing and curve drawing and fitting was performed using GraphPad Prism. The background emission from ThT in the absence of fibrils was negligible. The data points are typically a mean of four or eight samples and shown with standard deviation error bars. Only data obtained in the same experiment (i.e. samples on the same plate) are presented in the same graph ensuring a relative measure of fibrillation between experiments. The data set may be fitted to Eq. (1).

human GLP-1 receptor [2] = biological target: T1, human GLP-1 receptor (Homo sapiens, UniProt P43220); assay: Assay (I)(a) GLP-1 receptor activation, CRE luciferase reporter gene assay in BHK cells; assay type: cell-based; settings: without presence of serum albumin; read-out: GLP-1R EC50 (pM) [Assay (I)(a)]
T1 construct: expressed in transfected cells; host or cells: membranes of BHK cells (parent BHKTS13), clone FCW467-12A
T1 sequence (P43220 24-463): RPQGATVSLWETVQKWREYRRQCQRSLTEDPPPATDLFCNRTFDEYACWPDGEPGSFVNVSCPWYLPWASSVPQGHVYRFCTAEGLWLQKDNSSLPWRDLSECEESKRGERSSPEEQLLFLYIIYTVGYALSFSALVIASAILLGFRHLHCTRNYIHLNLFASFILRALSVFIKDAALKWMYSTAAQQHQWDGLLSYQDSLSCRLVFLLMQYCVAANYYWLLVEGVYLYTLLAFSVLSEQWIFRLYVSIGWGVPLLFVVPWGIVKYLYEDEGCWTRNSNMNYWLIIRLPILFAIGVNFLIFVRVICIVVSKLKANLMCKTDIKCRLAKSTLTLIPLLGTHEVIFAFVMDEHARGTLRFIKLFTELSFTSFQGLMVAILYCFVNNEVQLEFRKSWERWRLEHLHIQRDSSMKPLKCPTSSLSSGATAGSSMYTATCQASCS
Outline: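 Stable BHK clone expressing human GLP-1 receptor with CRE-driven firefly luciferase, 5×10EE3 cells/well in medium with 2% ovalbumin and 0.2% Pluronic F-68. Compounds at 1×10EE-13 to 1×10EE-6 M final, 3 h at 37° C.; luminescence read, EC50 (pM) from four-parameter fit.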

human GLP-1 receptor [3] = biological target: T1, human GLP-1 receptor; assay: Assay (II)(a) GLP-1 receptor binding, 125I-GLP-1 displacement SPA on BHK membranes; settings: without presence of serum albumin; read-out: GLP-1R IC50 (nM) [Assay (II)(a)]
Outline: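 Membranes from BHK cells (clone FCW467-12A) stably expressing human GLP-1R were incubated with serially diluted compounds (8×10EE-13 to 8×10EE-7 M before addition) and [125I]-GLP-1-(7-36)NH2 with WGA SPA beads, 2 h at 30° C, pH 7.4. IC50 taken from displacement by non-linear regression. Run at ≤0.001% or 2.0% final serum albumin.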

Row | ThT Assay Lag time (h) [Assay (III), pH 7.5] [1] | EC50 (human GLP-1 receptor [2]) | IC50 (human GLP-1 receptor [3]) | Compound
1 | 45.0 h | – | – | CC[C@H](C)[C@H](NC(=O)[C@H](CC(C)C)NC(=O)[C@H](Cc1c[nH]c2ccccc12)NC(=O)[C@H](CCC(N)=O)NC(=O)[C@@H](NC(=O)[C@H](Cc1ccccc1)NC(=O)[C@H](CCC(=O)O)NC(=O)[C@H](CCCNC(=N)N)NC(=O)[C@H](C)NC(=O)[C@H](CCCNC(=N)N)NC(=O)[C@H](CCCNC(=N)N)NC(=O)[C@H](CO)NC(=O)[C@H](CCC(=O)O)NC(=O)[C@H](CC(C)C)NC(=O)[C@H](Cc1ccc(O)cc1)NC(=O)[C@H](CCCCN)NC(=O)[C@H](CO)NC(=O)[C@@H](NC(=O)[C@H](CC(=O)O)NC(=O)[C@H](CO)NC(=O)[C@@H](NC(=O)[C@H](Cc1ccccc1)NC(=O)[C@@H](NC(=O)CNC(=O)[C@H](CCC(N)=O)NC(=O)C1(NC(=O)[C@@H](N)Cc2c[nH]cn2)CCC1)[C@@H](C)O)[C@@H](C)O)C(C)C)C(C)C)C(=O)N[C@@H](CCCCNC(=O)CC[C@H](NC(=O)CC[C@H](NC(=O)COCCOCCNC(=O)COCCOCCNC(=O)CC[C@H](NC(=O)CC[C@H](NC(=O)CCCCCCCCCCCCCCCCC(=O)O)C(=O)O)C(=O)O)C(=O)O)C(=O)O)C(=O)N[C@H](C(N)=O)[C@@H](C)O [Chem. 19, N^ε28-[(4S)-4-carboxy-4-[[(4S)-4-carboxy-4-[[2-[2-[2-[[2-[2-[2-[[(4S)-4-carboxy-4-[[(4S)-4-carboxy-4-(17-carboxyheptadecanoylamino)butanoyl]amino]butanoyl]amino]ethoxy]ethoxy]acetyl]amino]ethoxy]ethoxy]acetyl]amino]butanoyl]amino]butanoyl]-[Acb2,Val10,Glu15,Arg20,Glu21,Ile27,Lys28]-Glucagon amide] (H-H[Ac4c]QGTFTSDVSKYLESRRAREFVQWLIK([γGlu-γGlu-AEEA-AEEA-γGlu-γGlu-C18 diacid])T-NH2)
2 | 45.0 h | – | – | CC[C@H](C)[C@H](NC(=O)[C@H](CC(C)C)NC(=O)[C@H](Cc1c[nH]c2ccccc12)NC(=O)[C@H](C)NC(=O)[C@@H](NC(=O)[C@H](Cc1ccccc1)NC(=O)[C@H](CC(=O)O)NC(=O)[C@H](CCCNC(=N)N)NC(=O)[C@H](C)NC(=O)[C@H](CCCNC(=N)N)NC(=O)[C@H](CCCNC(=N)N)NC(=O)[C@H](CC(C)C)NC(=O)[C@H](CC(=O)O)NC(=O)[C@H](CC(C)C)NC(=O)[C@H](Cc1ccc(O)cc1)NC(=O)[C@H](CCCCN)NC(=O)[C@H](CO)NC(=O)[C@H](CC(C)C)NC(=O)[C@H](CC(=O)O)NC(=O)[C@H](CO)NC(=O)[C@@H](NC(=O)[C@H](Cc1ccccc1)NC(=O)[C@@H](NC(=O)CNC(=O)[C@H](CCC(N)=O)NC(=O)C(C)(C)NC(=O)[C@@H](N)Cc1c[nH]cn1)[C@@H](C)O)[C@@H](C)O)C(C)C)C(=O)N[C@@H](CO)C(=O)N[C@@H](CCCCNC(=O)CC[C@H](NC(=O)CC[C@H](NC(=O)COCCOCCNC(=O)COCCOCCNC(=O)CC[C@H](NC(=O)CCCCCCCCCCCCCCCCC(=O)O)C(=O)O)C(=O)O)C(=O)O)C(N)=O [Chem. 31, N^ε29-[(4S)-4-carboxy-4-[[(4S)-4-carboxy-4-[[2-[2-[2-[[2-[2-[2-[[(4S)-4-carboxy-4-(17-carboxyheptadecanoylamino)butanoyl]amino]ethoxy]ethoxy]acetyl]amino]ethoxy]ethoxy]acetyl]amino]butanoyl]amino]butanoyl]-[Aib2,Leu10,Leu16,Arg20,Ala24,Ile27,Ser28,Lys29]-Glucagon amide] (H-H[Aib]QGTFTSDLSKYLDLRRARDFVAWLISK([γGlu-γGlu-AEEA-AEEA-γGlu-C18 diacid])-NH2; N-terminus assumed)
3 | – | 5 pM | 0.1 nM | CC[C@H](C)[C@H](NC(=O)[C@H](CC(C)C)NC(=O)[C@H](Cc1c[nH]c2ccccc12)NC(=O)[C@H](CCC(N)=O)NC(=O)[C@@H](NC(=O)[C@H](Cc1ccccc1)NC(=O)[C@H](CCC(=O)O)NC(=O)[C@H](CCCNC(=N)N)NC(=O)[C@H](C)NC(=O)[C@H](CCCNC(=N)N)NC(=O)[C@H](CCCNC(=N)N)NC(=O)[C@H](C)NC(=O)[C@H](CC(=O)O)NC(=O)[C@H](CC(C)C)NC(=O)[C@H](Cc1ccc(O)cc1)NC(=O)[C@H](CCCCN)NC(=O)[C@H](CO)NC(=O)[C@H](CC(C)C)NC(=O)[C@H](CC(=O)O)NC(=O)[C@H](CO)NC(=O)[C@@H](NC(=O)[C@H](Cc1ccccc1)NC(=O)[C@@H](NC(=O)CNC(=O)[C@H](CCC(N)=O)NC(=O)C(C)(C)NC(=O)[C@@H](N)Cc1c[nH]cn1)[C@@H](C)O)[C@@H](C)O)C(C)C)C(=O)N[C@@H](CCCCNC(=O)COCCOCCNC(=O)COCCOCCNC(=O)CC[C@H](NC(=O)CC[C@H](NC(=O)CC[C@H](NC(=O)CCCCCCCCCCCCCCCCC(=O)O)C(=O)O)C(=O)O)C(=O)O)C(=O)N[C@H](C(N)=O)[C@@H](C)O [Chem. 6, N^ε28-[2-[2-[2-[[2-[2-[2-[[(4S)-4-carboxy-4-[[(4S)-4-carboxy-4-[[(4S)-4-carboxy-4-(17-carboxyheptadecanoylamino)butanoyl]amino]butanoyl]amino]butanoyl]amino]ethoxy]ethoxy]acetyl]amino]ethoxy]ethoxy]acetyl]-[Aib2,Leu10,Ala16,Arg20,Glu21,Ile27,Lys28]-Glucagon amide] (H-H[Aib]QGTFTSDLSKYLDARRAREFVQWLIK([AEEA-AEEA-γGlu-γGlu-γGlu-C18 diacid])T-NH2; N-terminus assumed)
4 | 45.0 h | – | – | CC[C@H](C)[C@H](NC(=O)[C@H](CC(C)C)NC(=O)[C@H](Cc1c[nH]c2ccccc12)NC(=O)[C@H](CCC(N)=O)NC(=O)[C@@H](NC(=O)[C@H](Cc1ccccc1)NC(=O)[C@H](CC(=O)O)NC(=O)[C@H](CCCNC(=N)N)NC(=O)[C@H](C)NC(=O)[C@H](CCCNC(=N)N)NC(=O)[C@H](CCCNC(=N)N)NC(=O)[C@H](CC(C)C)NC(=O)[C@H](CC(=O)O)NC(=O)[C@H](CC(C)C)NC(=O)[C@H](Cc1ccc(O)cc1)NC(=O)[C@H](CCCCN)NC(=O)[C@H](CO)NC(=O)[C@H](CC(C)C)NC(=O)[C@H](CC(=O)O)NC(=O)[C@H](CO)NC(=O)[C@@H](NC(=O)[C@H](Cc1ccccc1)NC(=O)[C@@H](NC(=O)CNC(=O)[C@H](CCC(N)=O)NC(=O)C(C)(C)NC(=O)[C@@H](N)Cc1c[nH]cn1)[C@@H](C)O)[C@@H](C)O)C(C)C)C(=O)N[C@@H](CO)C(=O)N[C@@H](CCCCNC(=O)CC[C@H](NC(=O)CC[C@H](NC(=O)COCCOCCNC(=O)COCCOCCNC(=O)CC[C@H](NC(=O)CCCCCCCCCCCCCCCCC(=O)O)C(=O)O)C(=O)O)C(=O)O)C(N)=O [Chem. 29, N^ε29-[(4S)-4-carboxy-4-[[(4S)-4-carboxy-4-[[2-[2-[2-[[2-[2-[2-[[(4S)-4-carboxy-4-(17-carboxyheptadecanoylamino)butanoyl]amino]ethoxy]ethoxy]acetyl]amino]ethoxy]ethoxy]acetyl]amino]butanoyl]amino]butanoyl]-[Aib2,Leu10,Leu16,Arg20,Ile27,Ser28,Lys29]-Glucagon amide] (H-H[Aib]QGTFTSDLSKYLDLRRARDFVQWLISK([γGlu-γGlu-AEEA-AEEA-γGlu-C18 diacid])-NH2; N-terminus assumed)
